Among the data in patent US9771389B2, “Tylosin derivatives and method for preparation thereof” (BAYER ANIMAL HEALTH GMBH, priority 2013, dated 2017) are Inhibition zone values, retold here.

Assay [1] has as its system Xanthomonas campestris KB88. Nature of the assay: Paper disc assay, Xanthomonas campestris. The following applies: X. The class given is cell-based. The procedure: (§1) (2) Antibacterial activities against other bacteria were determined with Micrococcus luteus ATCC9341 (1), Bacillus subtilis […] (s), Escherichia coli NIHJ (c), Xanthomonas campestris KB88 (X), Mucor racemosus IFO 4581 (Mu) and Candida albicans ATCC 64548 (Ca).
(§2) Bacillus subtilis ATCC6633 was incubated in Davis synthetic medium and then the seed broth was combined with the medium in the ratio of 1:99 to obtain a test plate. Micrococcus luteus ATCC9341, Escherichia coli NIHJ and Xanthomonas campestris KB88 were respectively incubated in Nutrient agar medium and inoculated at 0.2%, 0.5% and 1.0%. Mucor racemosus IFO 4581 and Candida albicans ATCC 64548 were respectively incubated in GY agar medium and then inoculated at 0.3% and 0.2%.
(§3) A paper disc (ADVANTEC, Φ:6 mm) was impregnated with a solution of test compound and dried under reduced pressure. The paper disc was put on the test plate and it was incubated for 24 hours at 37° C. After incubation, the inhibition zone diameter and clarity (A to E) were determined.

Assay [2] has as its system Bacillus subtilis ATCC6633. The experiment in a line: Paper disc assay, Bacillus subtilis. The class given is cell-based. The conditions noted are these: S. The procedure:
as §1, §2, §3

Assay [3] relates to Escherichia coli NIHJ. The experiment in a line: Paper disc assay, Escherichia coli. The class given is cell-based. The conditions noted are these: c. The procedure:
as §1, §2, §3

Assay [4] relates to Micrococcus luteus ATCC9341. Nature of the assay: Paper disc assay, Micrococcus luteus. In kind it is cell-based. The following applies: column 1. The procedure:
as §1, §2, §3

The subject of assay [5] is M. hemolytica KB346 (Tilmicosin-low sensitivity strain). The experiment in a line: Paper disc assay, M. hemolytica KB346. The following applies: 10 mg/6 mm disk; Table 5. The class given is cell-based, Mannhemia hemolytica. The procedure: (1) Antibacterial activities against Mannheimia and Pasteurella were determined by the following steps: • 1) M. hemolytica KB345 (Tilmicosin-sensitivity strain) and M. hemolytica KB346 (Tilmicosin-low sensitivity strain) were provided. KB 345 strain stored at −80° C. was seeded to BHIB agar medium (10 mL) by using Microbank beads (Pro-Lab) and platinum nail. After statically incubating the KB 345 strain for 24 hours at 37° C., it was seeded to maintaining slant BHIB agar medium (7 mL) by using platinum loop, further statically incubated for 24 hours at 37° C. to obtain slant. One platinum loop of KB 345 strain stored at the slant was inoculated into a large test tube charged with BHIB liquid medium (10 mL) and then incubated for 24 hours at 37° C. with shaking. • 2) A paper disc (ADVANTEC, Φ:6 mm) was impregnated with a solution of test compound and dried under reduced pressure. • 3) To a melted BHIB agar medium was inoculated 1% of the broth obtained from step 1) above to prepare a test plate. After the medium set, the paper disc prepared in step 2) above was put on the plate and it was incubated at 37° C. • 4) After one day, the inhibition zone diameter and clarity (A to E) were determined. For KB346 strain, the same procedures were repeated.

SMILES strings stand for the structures.

Take `CC[C@H]1OC(=O)C[C@@H](O)[C@H](C)[C@@H](O[C@@H]2O[C@H](C)[C@@H](O)[C@H](N(C)C)[C@H]2O)[C@@H](CCN2C[C@H](C)C[C@H](C)C2)C[C@@H](C)C(=O)/C=C/C(C)=C/[C@@H]1CO[C@@H]1O[C@H](C)[C@@H](O)[C@@H](OC)[C@H]1OC` [Tilmicosin, tilmicosin, reference compound]: the Inhibition zone in assay [1] (0.1 mg/6 mm disc) came to 12 mm; in assay [1] (1 mg/6 mm disc), 20 mm; in assay [1] (10 mg/6 mm disc) it was 30 mm; in assay [2] (0.1 mg/6 mm disc), 14 mm; in assay [2] (1 mg/6 mm disc), 11 mm; in assay [2] (10 mg/6 mm disc), 18 mm. For the same compound, the Inhibition zone turned out to be 13 mm in assay [3] (1 mg/6 mm disc); 20 mm in assay [3] (10 mg/6 mm disc); 12 mm in assay [4] (0.1 mg/6 mm disc); 19 mm in assay [4] (1 mg/6 mm disc); 27.5 mm in assay [4] (10 mg/6 mm disc); 11.0 mm in assay [5].

Take `CC[C@H]1OC(=O)C[C@@H](O)[C@H](C)[C@@H](O[C@@H]2O[C@H](C)[C@@H](O)[C@H](N(C)C)[C@H]2O)[C@@H](CCn2cc(-c3ccsc3)nn2)C[C@@H](C)C(=O)/C=C/C(C)=C/[C@@H]1CO[C@@H]1O[C@H](C)[C@@H](O)[C@@H](OC)[C@H]1OC` [YT14, 20-(4-(thiophene-3-yl)-1H-1,2,3-triazol-1-yl)-20-deoxodesmycosin]: the Inhibition zone in assay [1] (0.1 mg/6 mm disc) stood at 7 mm; in assay [1] (1 mg/6 mm disc), 16 mm; in assay [1] (10 mg/6 mm disc) it was 22 mm; in assay [2] (0.1 mg/6 mm disc) it was 8 mm; in assay [2] (1 mg/6 mm disc), 11 mm; in assay [2] (10 mg/6 mm disc), 15 mm. Moreover, the Inhibition zone in assay [3] (10 mg/6 mm disc) came out at 7 mm; in assay [4] (0.1 mg/6 mm disc), 13.5 mm; in assay [4] (1 mg/6 mm disc), 20.5 mm; in assay [4] (10 mg/6 mm disc) it was 26.5 mm.
